Legend:
[1] = 40° C. for few hours; literature data; cited from earlier work
[2] = Solid-state change of Tiotropium Bromide monohydrate on heating, by DRX; assay type: physicochemical; details: 40° C. at 50% UR for 72 hours, FIGS. 4 and 4A
Protocol: FIGS. 4 and 4A show the DRX spectra of a Tiotropium Bromide monohydrate before and after the heating at 40° C. at 50% UR for 72 hours.
In fact, this is an equilibrium that is driven by the relative humidity of the environment. […] See the enclosed DRX spectra of a Tiotropium Bromide monohydrate before and after the above described treatment (FIGS. 4 and 4A).

[3] = Stability of the crystalline form on storage, analyzed by DRX (powder); assay type: physicochemical; details: particularly polyethylene bag as primary packaging; driven by relative humidity
Text: X-Ray Diffraction spectra were registered by means of diffractometer (Rigaku-D-Max) from a start angle [½ 2-theta] of 5.000 to 60.000. The diffraction diagrams were obtained employing a Cu anode (Kα=1,54060 Å and Kα=1,54439 Å). The HPLC method utilized to check the quality of Tiotropium Bromide in the examined samples is the same as described in the European Pharmacopoeia 7.0.

Structure (SMILES) | Solid state after mild heating [1] | Solid state after heating (DRX) [2] | Crystalline form in the same storage conditions [3]
C[N+]1(C)[C@@H]2C[C@@H](OC(=O)C(O)(c3cccs3)c3cccs3)C[C@H]1[C@@H]1O[C@@H]12 [Tiotropium Bromide monohydrate] | easily transformed | changes into the corresponding anhydrous form | –
C[N+]1(C)[C@@H]2C[C@@H](OC(=O)C(O)(c3cccs3)c3cccs3)C[C@H]1[C@@H]1O[C@@H]12.[Br-] [Tiotropium Bromide, Tiotropium bromide] | – | – | may absorb or lose water, thus changing the crystalline form
